*1 amine or outer side, *2 acyl side, *3 side chain or, on linkers, in order; H or OH if unused. Where a SMILES comes first, the peptide text is derived from it. Bridges are numbered along the chain shown (N, C = ends). [ ]: non-standard residue; d: D form. The star is where a group is joined. ξ: configuration not given here. X2 = O=C(O)CN1CCN(CC(=O)O)CCN(CC(=O)NCCCOCCOCCOCCCN*)CCN(CC(=O)O)CC1; DOTA = O=C(O)CN1CCN(CC(=O)O)CCN(CC(=O)*)CCN(CC(=O)O)CC1; d(γGlu) = O=C(O)[C@@H](CCC(=O)[*:2])N[*:1]; Pro(cis-4-F) = O=C(O)[C@@H]1C[C@H](F)CN1; X1 = O=C(C[C@H]1CC[C@H](N[*:1])CC1)[*:2]; Pro(4S-NH2) = N[C@@H]1CN[C@H](C(=O)O)C1; Pro(4R-NH2) = N[C@H]1CN[C@H](C(=O)O)C1; 1Nal = N[C@@H](Cc1cccc2ccccc12)C(=O)O; 2Nal = N[C@@H](Cc1ccc2ccccc2c1)C(=O)O; Suc = O=C(CCC(=O)[*:2])[*:1]; ξIle = CC[C@H](C)C(N)C(=O)O; dNle = CCCC[C@@H](N)C(=O)O; Ahx = NCCCCCC(=O)O; ξP = O=C(O)C1CCCN1; Sar = CNCC(=O)O

The assay addresses T1, human DLL3 (Homo sapiens, UniProt Q9NYJ7).
T1 construct: biotin (biotinylated)
T1 sequence (Q9NYJ7 27-618): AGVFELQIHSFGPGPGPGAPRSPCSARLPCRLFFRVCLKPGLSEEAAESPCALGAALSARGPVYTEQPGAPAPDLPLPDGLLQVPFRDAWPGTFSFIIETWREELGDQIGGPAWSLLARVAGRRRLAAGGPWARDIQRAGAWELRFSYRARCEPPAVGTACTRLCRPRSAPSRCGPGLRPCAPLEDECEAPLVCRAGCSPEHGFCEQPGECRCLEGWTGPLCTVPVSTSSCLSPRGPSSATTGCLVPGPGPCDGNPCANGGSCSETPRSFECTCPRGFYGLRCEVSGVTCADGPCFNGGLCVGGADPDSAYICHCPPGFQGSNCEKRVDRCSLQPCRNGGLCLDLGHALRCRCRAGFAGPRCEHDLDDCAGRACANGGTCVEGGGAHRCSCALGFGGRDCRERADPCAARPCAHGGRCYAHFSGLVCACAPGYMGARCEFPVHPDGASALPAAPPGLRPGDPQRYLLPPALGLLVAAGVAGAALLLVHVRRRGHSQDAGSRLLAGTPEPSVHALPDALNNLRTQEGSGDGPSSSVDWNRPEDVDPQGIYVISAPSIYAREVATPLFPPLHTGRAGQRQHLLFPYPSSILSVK
As to the kind of experiment: Affinity determination by Surface Plasmon Resonance (SPR), biotinylated human DLL3 immobilized on streptavidin sensor chip. The settings on record: 25° C., Biacore, 1:1 binding model. As to the method: Affinity Determination by Surface Plasmon Resonance (SPR). SPR studies were performed on the compounds disclosed herein using the following protocol.
The binding affinity and binding kinetic parameters at 25° C. were determined using Biacore S200 or biacore 8K instrument. Biotinylated target ligand human DLL3 was immobilized on a streptavidin sensor chip. A reference surface was set up for nonspecific binding and refractive index changes. For analysis of the kinetics of interactions, varying concentrations of samples were injected at a flow rate of 100 μL/min using running buffer containing 20 mM phosphate buffer with 2.7 mM KCl, 137 mM NaCl, 0.05% Surfactant P20 and 2% DMSO. Sensorgram curves were fitted with 1:1 binding model, and affinity and kinetic parameters were obtained using Biacore Insight evaluation 4.0. software.
A general note: In SPR one partner is held on a chip, and binding of the other changes the refractive index at the surface.
Regarding `CCCC[C@@H](NC(=O)[C@@H]1CCCN1C(=O)[C@H](Cc1c[nH]c2ccccc12)NC(=O)[C@@H]1CSSC[C@H](NC(=O)[C@@H](NC(=O)[C@@H](NC(=O)[C@H](Cc2c[nH]c3ccccc23)NC(=O)CCCCCNC(=O)CN2CCN(CC(=O)O)CCN(CC(=O)O)CCN(CC(=O)O)CC2)[C@@H](C)O)[C@@H](C)CC)C(=O)N[C@@H](CC(N)=O)C(=O)N[C@@H](CC(N)=O)C(=O)N[C@@H](Cc2c[nH]c3ccccc23)C(=O)N[C@@H](Cc2cnc[nH]2)C(=O)N[C@@H](CC(=O)O)C(=O)N1)C(N)=O` [compound 163, DOTA-Ahx-W-T-I-C(3)-N-N-W-H-D-C(3)-W-P-(D-Nle)-NH2] ({DOTA-Ahx}-WTICNNWHDCWP[dNle]-NH2; disulfide 4-10), the Kd is 1 to 10 nM.
Under `CC[C@H](C)C(NC(=O)[C@@H](NC(=O)[C@H](Cc1c[nH]c2ccccc12)NC(=O)CCCCCNC(=O)CN1CCN(CC(=O)O)CCN(CC(=O)O)CCN(CC(=O)O)CC1)[C@@H](C)O)C(=O)N[C@H]1CSSC[C@@H](C(=O)N[C@@H](Cc2ccc3ccccc3c2)C(=O)N2CCC[C@H]2C(N)=O)NC(=O)[C@H](CC(=O)O)NC(=O)[C@H](Cc2cnc[nH]2)NC(=O)[C@H](Cc2c[nH]c3ccccc23)NC(=O)[C@H](CC(N)=O)NC(=O)[C@H](CC(N)=O)NC1=O` (stereo partly drawn) [compound 55, DOTA-Ahx-W-T-I-C(3)-N-N-W-H-D-C(3)-(2Nal)-P-CONH2] ({DOTA-Ahx}-WT[ξIle]CNNWHDC[2Nal]P-NH2; disulfide 4-10) stands 100 to 300 nM; under `CC[C@H](C)[C@H](NC(=O)[C@@H](NC(=O)[C@H](Cc1c[nH]c2ccccc12)NC(=O)CNC(=O)CNC(=O)CCC(=O)NCCCOCCOCCOCCCNC(=O)CN1CCN(CC(=O)O)CCN(CC(=O)O)CCN(CC(=O)O)CC1)[C@@H](C)O)C(=O)N[C@H]1CSSC[C@@H](C(=O)N[C@@H](Cc2c[nH]c3ccccc23)C(=O)N2CCC[C@H]2C(N)=O)NC(=O)[C@H](CC(=O)O)NC(=O)[C@H](Cc2c[nH]cn2)NC(=O)[C@H](Cc2c[nH]c3ccccc23)NC(=O)[C@H](CC(N)=O)NC(=O)[C@H](CC(N)=O)NC1=O` [compound 21] ({X2-Suc}-GGWTICNNWHDCWP-NH2; disulfide 6-12), 1 to 10 nM.
For `CC[C@H](C)C(NC(=O)[C@@H](NC(=O)[C@H](Cc1c[nH]c2ccccc12)NC(=O)CCCCCNC(=O)CN1CCN(CC(=O)O)CCN(CC(=O)O)CCN(CC(=O)O)CC1)[C@@H](C)O)C(=O)N[C@H]1CSSC[C@@H](C(=O)N[C@@H](Cc2c[nH]c3ccccc23)C(=O)N2CCC[C@H]2C(N)=O)NC(=O)[C@H](CC(=O)O)NC(=O)[C@H](Cc2cnc[nH]2)NC(=O)[C@H](Cc2ccc3ccccc3c2)NC(=O)[C@H](CC(N)=O)NC(=O)[C@H](CC(N)=O)NC1=O` (stereo partly drawn) [compound 57, DOTA-Ahx-W-T-I-C(3)-N-N-(2Nal)-H-D-C(3)-W-P-CONH2] ({DOTA-Ahx}-WT[ξIle]CNN[2Nal]HDCWP-NH2; disulfide 4-10) the value was 1 to 10 nM.
With `CC[C@H](C)C(NC(=O)[C@@H](NC(=O)[C@H](Cc1c[nH]c2ccccc12)NC(=O)CCCCCNC(=O)CN1CCN(CC(=O)O)CCN(CC(=O)O)CCN(CC(=O)O)CC1)[C@@H](C)O)C(=O)N[C@H]1CSSC[C@@H](C(=O)N[C@@H](Cc2cccc3ccccc23)C(=O)N2CCC[C@H]2C(N)=O)NC(=O)[C@H](CC(=O)O)NC(=O)[C@H](Cc2cnc[nH]2)NC(=O)[C@H](Cc2c[nH]c3ccccc23)NC(=O)[C@H](CC(N)=O)NC(=O)[C@H](CC(N)=O)NC1=O` (stereo partly drawn) [compound 54, DOTA-Ahx-W-T-I-C(3)-N-N-W-H-D-C(3)-(1Nal)-P-CONH2] ({DOTA-Ahx}-WT[ξIle]CNNWHDC[1Nal]P-NH2; disulfide 4-10), the Kd fell in the range of 10 to 100 nM.
For `CC[C@H](C)[C@H](NC(=O)[C@@H](NC(=O)[C@H](Cc1c[nH]c2ccccc12)NC(=O)CN(C)C(=O)CN(C)C(=O)CN(C)C(=O)CN(C)C(=O)CN(C)C(=O)CN1CCN(CC(=O)O)CCN(CC(=O)O)CCN(CC(=O)O)CC1)[C@@H](C)O)C(=O)N[C@H]1CSSC[C@@H](C(=O)N[C@@H](Cc2c[nH]c3ccccc23)C(=O)N2CCCC2C(N)=O)NC(=O)[C@H](CC(=O)O)NC(=O)[C@H](Cc2cnc[nH]2)NC(=O)[C@H](Cc2c[nH]c3ccccc23)NC(=O)[C@H](CC(N)=O)NC(=O)[C@H](CC(N)=O)NC1=O` (stereo partly drawn) [compound 22, DOTA-(Sar)5-W-T-I-C(3)-N-N-W-H-D-C(3)-W-P-CONH2] ({DOTA}-[Sar][Sar][Sar][Sar][Sar]WTICNNWHDCW[ξP]-NH2; disulfide 9-15) the value was 1 to 10 nM; for `CC[C@H](C)[C@H](NC(=O)[C@@H](NC(=O)[C@H](Cc1c[nH]c2ccccc12)NC(=O)CCCCCNC(=O)CN1CCN(CC(=O)O)CCN(CC(=O)O)CCN(CC(=O)O)CC1)[C@@H](C)O)C(=O)N[C@H]1CSSC[C@@H](C(=O)N[C@@H](Cc2c[nH]c3ccccc23)C(=O)N2C[C@@H](N)C[C@H]2C(N)=O)NC(=O)[C@H](CC(=O)O)NC(=O)[C@H](Cc2cnc[nH]2)NC(=O)[C@H](Cc2c[nH]c3ccccc23)NC(=O)[C@H](CC(N)=O)NC(=O)[C@H](CC(N)=O)NC1=O` [compound 225, DOTA-Ahx-W-T-I-C(3)-N-N-W-H-D-C(3)-W-(cis4NH2-P)-CONH2] ({DOTA-Ahx}-WTICNNWHDCW[Pro(4S-NH2)]-NH2; disulfide 4-10), 10 to 100 nM.
On to `CC[C@H](C)[C@H](NC(=O)[C@@H](NC(=O)[C@H](Cc1c[nH]c2ccccc12)NC(=O)CC[C@@H](NC(=O)CC[C@@H](NC(=O)CC[C@@H](NC(=O)CN1CCN(CC(=O)O)CCN(CC(=O)O)CCN(CC(=O)O)CC1)C(=O)O)C(=O)O)C(=O)O)[C@@H](C)O)C(=O)N[C@H]1CSSC[C@@H](C(=O)N[C@@H](Cc2c[nH]c3ccccc23)C(=O)N2CCC[C@H]2C(=O)O)NC(=O)[C@H](CC(=O)O)NC(=O)[C@H](Cc2c[nH]cn2)NC(=O)[C@H](Cc2c[nH]c3ccccc23)NC(=O)[C@H](CC(N)=O)NC(=O)[C@H](CC(N)=O)NC1=O` [compound 221, DOTA-(D-gE)3-W-T-I-C(3)-N-N-W-H-D-C(3)-W-P-CONH2] ({DOTA-d(γGlu)-d(γGlu)-d(γGlu)}-WTICNNWHDCWP-OH; disulfide 4-10), for which the equilibrium dissociation constant (Kd) lay in the range of 10 to 100 nM.
`CC[C@H](C)[C@H](NC(=O)[C@@H](NC(=O)[C@H](Cc1c[nH]c2ccccc12)NC(=O)CN1CCN(CC(=O)O)CCN(CC(=O)O)CCN(CC(=O)O)CC1)[C@@H](C)O)C(=O)N[C@H]1CSSC[C@@H](C(=O)N[C@@H](Cc2c[nH]c3ccccc23)C(=O)N2CCC[C@H]2C(N)=O)NC(=O)[C@H](CC(=O)O)NC(=O)[C@H](Cc2cnc[nH]2)NC(=O)[C@H](Cc2c[nH]c3ccccc23)NC(=O)[C@H](CC(N)=O)NC(=O)[C@H](CC(N)=O)NC1=O` [compound 17, DOTA-W-T-I-C(3)-N-N-W-H-D-C(3)-W-P-CONH2] ({DOTA}-WTICNNWHDCWP-NH2; disulfide 4-10) returned an equilibrium dissociation constant (Kd) of 10 to 100 nM.
The compound `CC[C@H](C)[C@H](NC(=O)[C@@H](NC(=O)[C@H](Cc1c[nH]c2ccccc12)NC(=O)C[C@H]1CC[C@H](NC(=O)CN2CCN(CC(=O)O)CCN(CC(=O)O)CCN(CC(=O)O)CC2)CC1)[C@@H](C)O)C(=O)N[C@H]1CSSC[C@@H](C(=O)N[C@@H](Cc2c[nH]c3ccccc23)C(=O)N2CCC[C@H]2C(N)=O)NC(=O)[C@H](CC(=O)O)NC(=O)[C@H](Cc2cnc[nH]2)NC(=O)[C@H](Cc2c[nH]c3ccccc23)NC(=O)[C@H](CC(N)=O)NC(=O)[C@H](CC(N)=O)NC1=O` [compound 19, DOTA-CyHex-W-T-I-C(3)-N-N-W-H-D-C(3)-W-P-CONH2] ({DOTA}-[X1]WTICNNWHDCWP-NH2; disulfide 5-11) returned a Kd of 10 to 100 nM.
For the compound `CC[C@H](C)[C@H](NC(=O)[C@@H](NC(=O)[C@H](Cc1c[nH]c2ccccc12)NC(=O)CCCCCNC(=O)CN1CCN(CC(=O)O)CCN(CC(=O)O)CCN(CC(=O)O)CC1)[C@@H](C)O)C(=O)N[C@H]1CSSC[C@@H](C(=O)N[C@@H](Cc2c[nH]c3ccccc23)C(=O)N2C[C@@H](F)C[C@H]2C(N)=O)NC(=O)[C@H](CC(=O)O)NC(=O)[C@H](Cc2cnc[nH]2)NC(=O)[C@H](Cc2c[nH]c3ccccc23)NC(=O)[C@H](CC(N)=O)NC(=O)[C@H](CC(N)=O)NC1=O` [compound 67, DOTA-Ahx-W-T-I-C(3)-N-N-W-H-D-C(3)-W-(Cis4Fluoro-P)-CONH2] ({DOTA-Ahx}-WTICNNWHDCW[Pro(cis-4-F)]-NH2; disulfide 4-10), the Kd is 100 to 300 nM.
For `CC[C@H](C)[C@H](NC(=O)[C@@H](NC(=O)[C@H](Cc1c[nH]c2ccccc12)NC(=O)CCCCCNC(=O)CN1CCN(CC(=O)O)CCN(CC(=O)O)CCN(CC(=O)O)CC1)[C@@H](C)O)C(=O)N[C@H]1CSSC[C@@H](C(=O)N[C@@H](Cc2c[nH]c3ccccc23)C(=O)N2C[C@H](N)C[C@H]2C(N)=O)NC(=O)[C@H](CC(=O)O)NC(=O)[C@H](Cc2cnc[nH]2)NC(=O)[C@H](Cc2c[nH]c3ccccc23)NC(=O)[C@H](CC(N)=O)NC(=O)[C@H](CC(N)=O)NC1=O` [compound 224, DOTA-Ahx-W-T-I-C(3)-N-N-W-H-D-C(3)-W-(trans4NH2-P)-CONH2] ({DOTA-Ahx}-WTICNNWHDCW[Pro(4R-NH2)]-NH2; disulfide 4-10) the value was 10 to 100 nM.

One may read the Kd as the free concentration of one partner at which half of the binding sites on the other are occupied at equilibrium, for simple one-to-one binding.

These data come from US20250034210A1, “DLL3 TARGETING PEPTIDES AND CONSTRUCTS THEREOF” (MARIANA ONCOLOGY INC., priority 2023, published 2025).
